In patent US10131644B2, “Aryl sultam derivatives as RORc modulators” (Genentech, Inc., priority 2014, dated 2018):

Each compound was assayed against T1, RORc (Homo sapiens, UniProt P51449) (assay: In vitro RORc ligand binding assay (25-[3H]hydroxycholesterol displacement)). Settings: IC50, IC50 values for RORc; unit inferred.
T1 sequence (P51449 269-508 limits assumed): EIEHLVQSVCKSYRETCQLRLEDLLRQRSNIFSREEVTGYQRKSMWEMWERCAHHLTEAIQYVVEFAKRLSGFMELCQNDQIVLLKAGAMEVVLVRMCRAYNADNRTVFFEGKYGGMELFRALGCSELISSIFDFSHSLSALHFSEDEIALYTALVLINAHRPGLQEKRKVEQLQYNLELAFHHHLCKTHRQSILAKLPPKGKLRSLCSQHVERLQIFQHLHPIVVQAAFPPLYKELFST
CC(=O)N1CCC(OCC(O)CO)(c2cc(F)c(CN3[C@@H](C)CC[C@H](c4ccccc4)S3(=O)=O)cc2F)CC1 (stereo in doubt) [Compound 168, 1-[4-[2,5-difluoro-4-[[(3S,6R)-3-methyl-1,1-dioxo-6-phenyl-thiazinan-2-yl]methyl]phenyl]-4-[(2S)-2,3-dihydroxypropoxy]-1-piperidyl]ethanone] showed an IC50 of 0.0355 µM. Compound CC(=O)N1CCC(OCC(O)CO)(c2cc(F)c(CN3[C@@H](C)CC[C@H](c4ccccc4)S3(=O)=O)cc2F)CC1 (stereo in doubt) [Compound 169, 1-[4-[2,5-difluoro-4-[[(3S,6R)-3-methyl-1,1-dioxo-6-phenyl-thiazinan-2-yl]methyl]phenyl]-4-[(2R)-2,3-dihydroxypropoxy]-1-piperidyl]ethanone] has an IC50 of 0.0208 µM. Work on C[C@H]1CC[C@H](c2ccccc2)S(=O)(=O)N1Cc1cc(F)c(C2(OCC(O)CO)CCOCC2)cc1F (stereo in doubt) [Compound 170, (2S)-3-[4-[2,5-difluoro-4-[[(3S,6R)-3-methyl-1,1-dioxo-6-phenyl-thiazinan-2-yl]methyl]phenyl]tetrahydropyran-4-yl]oxypropane-1,2-diol] yielded an IC50 of 0.0117 µM. For C[C@H]1CC[C@H](c2ccccc2)S(=O)(=O)N1Cc1cc(F)c(C2(OCC(O)CO)CCOCC2)cc1F (stereo in doubt) [Compound 171, (2R)-3-[4-[2,5-difluoro-4-[[(3S,6R)-3-methyl-1,1-dioxo-6-phenyl-thiazinan-2-yl]methyl]phenyl]tetrahydropyran-4-yl]oxypropane-1,2-diol], the IC50 was 0.0116 µM. C[C@H]1CC[C@H](c2ccccc2)S(=O)(=O)N1Cc1ccc(C2(O)CCC3(CC2)OCCO3)cc1F [Compound 24, 8-[3-Fluoro-4-((3S,6R)-3-methyl-1,1-dioxo-6-phenyl-[1,2]thiazinan-2-ylmethyl)-phenyl]-1,4-dioxa-spiro[4.5]decan-8-ol] showed an IC50 of 0.18 µM. C[C@H]1CC[C@H](c2ccccc2)S(=O)(=O)N1Cc1ccc([C@]2(C(N)=O)CC[C@@H](n3cnnc3)CC2)cc1F [Compound 25, 1-[3-Fluoro-4-((3S,6R)-3-methyl-1,1-dioxo-6-phenyl-[1,2]thiazinan-2-ylmethyl)-phenyl]-4-[1,2,4]triazol-4-yl-cyclohexanecarboxylic acid amide] was tested, and the IC50 was 0.022 µM. In the case of C[C@H]1CC[C@H](c2ccccc2)S(=O)(=O)N1Cc1ccc([C@]2(CO)CC[C@@H](n3cnnc3)CC2)cc1F [Compound 26, {1-[3-Fluoro-4-((3S,6R)-3-methyl-1,1-dioxo-6-phenyl-[1,2]thiazinan-2-ylmethyl)-phenyl]-4-[1,2,4]triazol-4-yl-cyclohexyl}-methanol], the IC50 is reported as 0.032 µM. COC(=O)C1(c2ccc(CN3[C@@H](C)CC[C@H](c4ccccc4)S3(=O)=O)cc2)CCOCC1 [Compound 27, 4-[4-((3S,6R)-3-Methyl-1,1-dioxo-6-phenyl-[1,2]thiazinan-2-ylmethyl)-phenyl]-tetrahydro-pyran-4-carboxylic acid methyl ester] was tested, and the IC50 was 0.5 µM. For C[C@H]1CCC(c2ccccc2)S(=O)(=O)N1Cc1ccc(C2(C(=O)O)CCOCC2)cc1 (stereo partly drawn) [Compound 29, 4-[4-((S)-3-Methyl-1,1-dioxo-6-phenyl-[1,2]thiazinan-2-ylmethyl)-phenyl]-tetrahydro-pyran-4-carboxylic acid], the IC50 was 4.4 µM. For C[C@H]1CC[C@H](c2ccccc2)S(=O)(=O)N1Cc1ccc(C2(C#N)CCOCC2)cc1 [Compound 30, 4-[4-((3S,6R)-3-Methyl-1,1-dioxo-6-phenyl-[1,2]thiazinan-2-ylmethyl)-phenyl]-tetrahydro-pyran-4-carbonitrile], the IC50 was 0.68 µM. Work on C[C@H]1CC[C@H](c2ccccc2)S(=O)(=O)N1Cc1ccc(C2(C(N)=O)CCOCC2)cc1 [Compound 31, 4-[4-((3S,6R)-3-Methyl-1,1-dioxo-6-phenyl-[1,2]thiazinan-2-ylmethyl)-phenyl]-tetrahydro-pyran-4-carboxylic acid amide] yielded an IC50 of 0.42 µM. Compound C[C@H]1CC[C@H](c2ccccc2)S(=O)(=O)N1Cc1ccc(C2(CO)CCOCC2)cc1 [Compound 32, {4-[4-((3S,6R)-3-Methyl-1,1-dioxo-6-phenyl-[1,2]thiazinan-2-ylmethyl)-phenyl]-tetrahydro-pyran-4-yl}-methanol] has an IC50 of 0.31 µM. CC(=O)N[C@H]1CC[C@](C#N)(c2ccc(CN3[C@@H](C)CC[C@@H](c4ccccc4)S3(=O)=O)c(F)c2)CC1 [Compound 33, N-{4-Cyano-4-[3-fluoro-4-((3S,6S)-3-methyl-1,1-dioxo-6-phenyl-[1,2]thiazinan-2-ylmethyl)-phenyl]-cyclohexyl}-acetamide] was tested, and the IC50 was 1.8 µM. With CC(=O)N[C@H]1CC[C@](C#N)(c2ccc(CN3[C@@H](C)CC[C@H](c4ccccc4)S3(=O)=O)c(F)c2)CC1 [Compound 34, N-{4-Cyano-4-[3-fluoro-4-((3S,6R)-3-methyl-1,1-dioxo-6-phenyl-[1,2]thiazinan-2-ylmethyl)-phenyl]-cyclohexyl}-acetamide] the IC50 was 2.3 µM. C[C@H]1CC[C@H](c2ccccc2)S(=O)(=O)N1Cc1ccc(C2(C(=O)N(C)C)CCOCC2)cc1 [Compound 35, 4-[4-((3S,6R)-3-Methyl-1,1-dioxo-6-phenyl-[1,2]thiazinan-2-ylmethyl)-phenyl]-tetrahydro-pyran-4-carboxylic acid dimethylamide] was tested, and the IC50 was 0.82 µM. For C[C@H]1CC[C@@H](c2ccccc2)S(=O)(=O)N1Cc1cc(F)c([C@]2(O)CC[C@@H](n3cnnc3)CC2)cc1F [Compound 36, 1-[2,5-Difluoro-4-((3S,6S)-3-methyl-1,1-dioxo-6-phenyl-[1,2]thiazinan-2-ylmethyl)-phenyl]-4-[1,2,4]triazol-4-yl-cyclohexanol], the IC50 was 0.013 µM. In the case of C[C@H]1CC[C@H](c2ccccc2)S(=O)(=O)N1Cc1cc(F)c([C@]2(O)CC[C@@H](n3cnnc3)CC2)cc1F [Compound 37, 1-[2,5-Difluoro-4-((3S,6R)-3-methyl-1,1-dioxo-6-phenyl-[1,2]thiazinan-2-ylmethyl)-phenyl]-4-[1,2,4]triazol-4-yl-cyclohexanol], the IC50 is reported as 0.02 µM. With COC(=O)C1(c2ccc(CN3[C@@H](C)CC[C@@H](c4ccccc4)S3(=O)=O)c(F)c2)CCOCC1 [Compound 38, 4-[3-Fluoro-4-((3S,6S)-3-methyl-1,1-dioxo-6-phenyl-[1,2]thiazinan-2-ylmethyl)-phenyl]-tetrahydro-pyran-4-carboxylic acid methyl ester] the IC50 was 0.48 µM. In the case of COC(=O)C1(c2ccc(CN3[C@@H](C)CC[C@H](c4ccccc4)S3(=O)=O)c(F)c2)CCOCC1 [Compound 39, 4-[3-Fluoro-4-((3S,6R)-3-methyl-1,1-dioxo-6-phenyl-[1,2]thiazinan-2-ylmethyl)-phenyl]-tetrahydro-pyran-4-carboxylic acid methyl ester], the IC50 is reported as 0.19 µM. CNC(=O)C1(c2ccc(CN3[C@@H](C)CCC(c4ccccc4)S3(=O)=O)cc2)CCOCC1 (stereo partly drawn) [Compound 40, 4-[4-((S)-3-Methyl-1,1-dioxo-6-phenyl-[1,2]thiazinan-2-ylmethyl)-phenyl]-tetrahydro-pyran-4-carboxylic acid methylamide] was tested, and the IC50 was 0.57 µM. In the case of C[C@H]1CC[C@@H](c2ccccc2)S(=O)(=O)N1Cc1ccc(C2(O)CCS(=O)(=O)CC2)cc1F [Compound 41, (3S,6S)-2-(2-fluoro-4-(4-hydroxy-1,1-dioxidotetrahydro-2H-thiopyran-4-yl)benzyl)-3-methyl-6-phenyl-1,2-thiazinane 1,1-dioxide], the IC50 is reported as 1.2 µM. C[C@H]1CC[C@H](c2ccccc2)S(=O)(=O)N1Cc1ccc(C2(O)CCS(=O)(=O)CC2)cc1F [Compound 42, (3S,6R)-2-(2-fluoro-4-(4-hydroxy-1,1-dioxidotetrahydro-2H-thiopyran-4-yl)benzyl)-3-methyl-6-phenyl-1,2-thiazinane 1,1-dioxide] was tested, and the IC50 was 0.19 µM. Work on CNC(=O)[C@]1(c2ccc(CN3[C@@H](C)CC[C@H](c4ccccc4)S3(=O)=O)c(F)c2)CC[C@H](n2cnnc2)CC1 [Compound 43, 1-[3-Fluoro-4-((3S,6R)-3-methyl-1,1-dioxo-6-phenyl[1,2]thiazinan-2-ylmethyl)-phenyl]-4-[1,2,4]triazol-4-yl-cyclohexanecarboxylic acid methylamide] yielded an IC50 of 0.096 µM. Compound C[C@H]1CC[C@H](c2ccccc2)S(=O)(=O)N1Cc1ccc(C2(C(=O)O)CCOCC2)cc1F [Compound 44, 4-[3-Fluoro-4-((3S,6R)-3-methyl-1,1-dioxo-6-phenyl-[1,2]thiazinan-2-ylmethyl)-phenyl]-tetrahydro-pyran-4-carboxylic acid] has an IC50 of 1.1 µM. C[C@H]1CC[C@@H](c2ccccc2)S(=O)(=O)N1Cc1ccc(C2(C(=O)O)CCOCC2)cc1F [Compound 45, 4-[3-Fluoro-4-((3S,6S)-3-methyl-1,1-dioxo-6-phenyl-[1,2]thiazinan-2-ylmethyl)-phenyl]-tetrahydro-pyran-4-carboxylic acid] was tested, and the IC50 was 6.1 µM. For COC(=O)C1(c2ccc(CN3C(C)CCC(c4ccccc4)S3(=O)=O)c(F)c2)CCC(n2cnnc2)CC1 (stereo not shown) [Compound 46, methyl 1-(3-fluoro-4-((3-methyl-1,1-dioxido-6-phenyl-1,2-thiazinan-2-yl)methyl)phenyl)-4-(4H-1,2,4-triazol-4-yl)cyclohexanecarboxylate], the IC50 was 0.054 µM. C[C@H]1CC[C@@H](c2ccccc2)S(=O)(=O)N1Cc1ccc(C2(C(=O)NCCO)CCOCC2)cc1F [Compound 47, 4-(3-fluoro-4-(((3S,6S)-3-methyl-1,1-dioxido-6-phenyl-1,2-thiazinan-2-yl)methyl)phenyl)-N-(2-hydroxyethyl)tetrahydro-2H-pyran-4-carboxamide] gave an IC50 of 0.991 µM. Compound C[C@H]1CC[C@H](c2ccccc2)S(=O)(=O)N1Cc1ccc(C2(C(=O)NCCO)CCOCC2)cc1F [Compound 48, 4-(3-fluoro-4-(((3S,6R)-3-methyl-1,1-dioxido-6-phenyl-1,2-thiazinan-2-yl)methyl)phenyl)-N-(2-hydroxyethyl)tetrahydro-2H-pyran-4-carboxamide] has an IC50 of 0.337 µM.
